Data from patent publication US20210177828A1, “TAM FAMILY KINASE /AND CSF1R KINASE INHIBITOR AND USE THEREOF” (Nanjing Transthera Biosciences Co., Ltd., priority 2018, published 2021).

Key:
[1] = Liver microsomal stability; assay type: in vitro ADME; conditions: mouse liver microsomes, 0.5 mg protein/mL, 1 μM compound
Method: An appropriate amount of the compound was precisely weighed and dissolved in DMSO to prepare a 5.0 mM stock solution. The 5.0 mM stock solution was diluted with DMSO to 1.0 mM, and finally diluted with water to a 10 μM working solution of the test sample for use (the DMSO content in the reaction system was 0.1%).
(1) The liver microsomes (20 mg protein/mL) were taken from a −80° C. refrigerator, pre-incubated on a 37° C. water bath thermostatic oscillator for 3 min, and thawed for use.
(2) An incubation system (without compound and β-NADPH) was prepared according to “composition of the incubation system” described above, and pre-incubated on a 37° C. water bath thermostatic oscillator for 2 min.
(3) Control group (without β-NADPH): 30 μL of water and 30 μL of compound working solution (10 μM) were added to 240 μL of the incubation system in step (2), and the reaction system was vortexed for 30 s and thoroughly mixed. The total volume of the reaction system was 300 μL. The sample was duplicated. The reaction solution was placed on a 37° C. water bath thermostatic oscillator for incubation, and timing was started. The sampling was conducted at 0 min and 60 min.
(4) Sample group: 70 μL of β-NADPH solution (10 mM) and 70 μL of compound working solution (10 μM) were added to 560 μL of the incubation system in step (2), and the total volume of the reaction system was 700 μL. The reaction solution was vortexed for 30 s and thoroughly mixed. The sample was duplicated. The reaction solution was placed on a 37° C. water bath thermostatic oscillator for incubation, and timing was started. The sampling was conducted at 0 min, 5 min, 10 min, 20 min, 30 min and 60 min.
(5) The reaction solution was vortexed for 3 min, and centrifuged at 12,000 rpm for 5 min.
(6) 50 μL of the supernatant was added to 150 μL of water, and the resulting solution was thoroughly vortexed and analyzed by LC/MS/MS.

CSF1R (h) = CSF1R (h) (Homo sapiens, UniProt P07333); test: Enzymatic activity assay, CSF1R (h), [γ-33P]-ATP filter assay; assay type: biochemical; conditions: 10 μM ATP, 40 min room temperature; read-out: Inhibitory activity IC50 CSF1R(h)
Sequence of CSF1R (h) (P07333 20-972): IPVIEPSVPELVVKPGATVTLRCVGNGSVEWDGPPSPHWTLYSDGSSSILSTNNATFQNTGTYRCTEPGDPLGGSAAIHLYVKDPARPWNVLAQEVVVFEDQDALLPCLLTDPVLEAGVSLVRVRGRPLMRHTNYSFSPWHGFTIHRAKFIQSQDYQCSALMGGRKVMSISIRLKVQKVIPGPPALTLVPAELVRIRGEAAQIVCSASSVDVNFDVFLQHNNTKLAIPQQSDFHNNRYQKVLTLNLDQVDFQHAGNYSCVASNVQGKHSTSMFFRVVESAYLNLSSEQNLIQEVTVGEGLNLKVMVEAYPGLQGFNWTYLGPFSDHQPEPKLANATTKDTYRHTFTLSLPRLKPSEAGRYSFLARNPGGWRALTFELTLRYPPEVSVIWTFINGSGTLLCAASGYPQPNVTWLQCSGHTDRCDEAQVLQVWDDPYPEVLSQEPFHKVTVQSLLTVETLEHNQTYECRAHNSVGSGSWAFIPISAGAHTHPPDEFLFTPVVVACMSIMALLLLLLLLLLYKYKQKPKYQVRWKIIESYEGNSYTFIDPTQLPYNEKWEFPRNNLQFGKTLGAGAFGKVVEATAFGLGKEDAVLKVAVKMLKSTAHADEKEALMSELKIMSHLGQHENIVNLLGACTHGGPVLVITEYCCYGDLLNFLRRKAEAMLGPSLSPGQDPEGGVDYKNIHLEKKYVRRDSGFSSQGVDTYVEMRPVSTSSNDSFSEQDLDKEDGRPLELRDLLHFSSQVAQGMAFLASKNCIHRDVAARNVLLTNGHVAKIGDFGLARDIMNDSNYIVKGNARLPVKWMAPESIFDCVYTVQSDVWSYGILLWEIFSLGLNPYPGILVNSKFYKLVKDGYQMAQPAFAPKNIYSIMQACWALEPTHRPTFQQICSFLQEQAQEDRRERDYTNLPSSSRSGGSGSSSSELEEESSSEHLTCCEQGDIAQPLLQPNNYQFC
Method: Compounds were each dissolved in 100% DMSO to prepare stock solutions with a maximum concentration of 500 μM.
Compound working solutions (50×) were prepared by diluting a compound stock solution to a final concentration of 500, 150, 50, 15, 5, 1.5, 0.5, 0.15 and 0.05 μM.
An enzyme solution with a final concentration of 64 nM was prepared by dissolving CSF1R enzyme in a mixture of 8 mM MOPS (pH 7.0), 0.2 mM EDTA and 250 μM KKSRGDYMTMQIG. A Mg/ATP mixture of 10 mM magnesium acetate and 10 μM [γ-^33P]-ATP was used to activate the enzymatic reaction.
A compound working solution was added to a 384-well plate, with final concentrations of 10,000, 3,000, 1,000, 300, 100, 30, 10, 3 and 1 nM, and then different enzymatic reaction solutions prepared according to the above conditions were added. The reaction solutions were incubated at room temperature for 40 min, and then 0.5% phosphoric acid solutions were added to terminate the reaction. 10 μL of the reaction solution was added dropwise to P30 filter paper, washed 4 times with a 0.425% phosphoric acid solution and once with methanol, and then placed in a scintillation counter for detection. Gray analysis was performed on the results with Image J software, and IC50 values were calculated with GraphPad 5.0 software.

H1299 cell pMer = target: T1, H1299 cell pMer (Homo sapiens, UniProt Q12866); test: Inhibitory activity on cell pMer, H1299 cells, Human Mer Mab stimulation, Western Blot; assay type: cell-based; conditions: Human Mer Mab 200 ng/mL
T1 construct: endogenous in cells; host or cells: H1299
T1 sequence (Q12866 21-999): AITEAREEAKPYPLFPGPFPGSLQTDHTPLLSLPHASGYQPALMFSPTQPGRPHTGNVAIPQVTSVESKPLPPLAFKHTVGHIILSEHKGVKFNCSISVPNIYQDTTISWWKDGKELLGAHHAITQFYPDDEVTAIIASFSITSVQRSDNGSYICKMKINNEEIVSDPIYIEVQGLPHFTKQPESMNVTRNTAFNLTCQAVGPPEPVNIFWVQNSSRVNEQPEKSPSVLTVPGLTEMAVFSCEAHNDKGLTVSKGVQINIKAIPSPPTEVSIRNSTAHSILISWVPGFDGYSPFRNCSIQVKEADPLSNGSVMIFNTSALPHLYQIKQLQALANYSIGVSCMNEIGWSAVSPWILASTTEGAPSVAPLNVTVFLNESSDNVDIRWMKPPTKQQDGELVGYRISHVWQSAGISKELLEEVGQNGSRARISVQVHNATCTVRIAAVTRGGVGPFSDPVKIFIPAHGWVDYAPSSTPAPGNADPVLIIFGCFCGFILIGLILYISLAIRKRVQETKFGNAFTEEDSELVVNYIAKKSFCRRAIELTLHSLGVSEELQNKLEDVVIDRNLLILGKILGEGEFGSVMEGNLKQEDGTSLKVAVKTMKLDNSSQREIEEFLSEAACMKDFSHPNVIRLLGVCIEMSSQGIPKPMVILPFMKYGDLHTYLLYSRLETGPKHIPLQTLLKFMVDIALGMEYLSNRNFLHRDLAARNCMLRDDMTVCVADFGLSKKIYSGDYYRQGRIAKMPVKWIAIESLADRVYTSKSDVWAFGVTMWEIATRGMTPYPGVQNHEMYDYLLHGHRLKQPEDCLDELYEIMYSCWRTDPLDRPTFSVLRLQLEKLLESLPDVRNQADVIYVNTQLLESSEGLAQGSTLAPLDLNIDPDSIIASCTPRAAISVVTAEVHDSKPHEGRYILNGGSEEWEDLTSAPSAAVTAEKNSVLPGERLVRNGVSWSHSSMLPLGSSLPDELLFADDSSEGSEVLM
Method: H1299 is anon-small cell lung cancer cell.
H1299 cells were inoculated to a 6-well plate (containing 10% FBS 1640 medium, 5×10^5 cells per well) and adherently cultivated at 37° C., and 5% CO2 for 18 hrs. The cells were starved overnight, and then compound solutions with different concentrations were added. The compounds had final concentrations of 0.35, 1.1, 3.3 and 10 nM. […] There was a medium containing 1‰DMSO in the negative control well. The cells were incubated at 37° C., and 5% CO2 for 60 min, and then Human Mer Mab (R&D, final concentration: 200 ng/mL) was added to each well. The cells were further incubated for 60 min, and then the total protein of the cells was extracted for Western Blot experiment. Gray analysis was performed on the results with Image J software, and IC50 values were calculated with GraphPad 5.0 software. The inhibitory activities of the compounds on cell pMer were detected.

| half-life at 1 μM [1] [h] | microsomal CLint at 1 μM [1] [µL/min/mg] | IC50 (CSF1R (h)) [nM] | IC50 (H1299 cell pMer) [nM] | SMILES |
| --- | --- | --- | --- | --- |
| 1.93 | 12 | < 200 | < 1.1 | COc1cc2nccc(Oc3cnc(NC(=O)c4nn(C5CCOCC5)cc(-c5ccc(C)cc5)c4=O)nc3)c2cc1OC [Compound 18, N-(5-((6,7-dimethoxyquinolin-4-yl)oxy)pyrimidin-2-yl)-4-oxo-1-(tetrahydro-2H-pyran-4-yl)-5-(p-tolyl)-1,4-dihydropyridazin-3-carboxamide] |
| 3.73 | 6.2 | < 200 | 3.3 to 10 | COc1cc2nccc(Oc3cnc(NC(=O)c4cn(C5CCOCC5)cc(-c5ccc(C)cc5)c4=O)nc3)c2cc1OC [Compound 20, N-(5-((6,7-dimethoxyquinolin-4-yl)oxy)pyrimidin-2-yl)-4-oxo-1-(tetrahydro-2H-pyran-4-yl)-5-(p-tolyl)-1,4-dihydropyridin-3-carboxamide] |
| 5.02 | 4.6 | < 200 | < 1.1 | COc1cc2nccc(Oc3ccc(NC(=O)c4cn(C5CCOCC5)cc(-c5ccc(F)cc5)c4=O)nc3)c2cc1OC [Compound 27, N-(5-((6,7-dimethoxyquinolin-4-yl)oxy)pyridin-2-yl)-5-(4-fluorophenyl)-4-oxo-1-(tetrahydro-2H-pyran-4-yl)-1,4-dihydropyridin-3-carboxamide] |
| 1.44 | 16 | < 200 | 1.1 | COc1cc2nccc(Oc3ccc(NC(=O)c4nn(C5CCOCC5)cc(-c5ccc(C)cc5)c4=O)cc3F)c2cc1OC [Compound 28] |
| 6.42 | 3.6 | < 200 | 3.3 to 10 | COc1cc2nccc(Oc3cnc(NC(=O)c4cn(C5CCOCC5)cc(-c5ccc(F)cc5)c4=O)nc3)c2cc1OC [Compound 31, N-(5-((6,7-dimethoxyquinolin-4-yl)oxy)pyrimidin-2-yl)-5-(4-fluorophenyl)-4-oxo-1-(tetrahydro-2H-pyran-4-yl)-1,4-dihydropyridin-3-carboxamide] |
| 1.39 | 16.6 | < 200 | 1.1 | COc1cc2nccc(Oc3ccc(NC(=O)c4cc(CC5CCOCC5)cn(-c5ccc(F)cc5)c4=O)nc3)c2cc1OC [Compound 32, N-(5-((6,7-dimethoxyquinolin-4-yl)oxy)pyridin-2-yl)-1-(4-fluorophenyl)-2-oxo-5-((tetrahydro-2H-pyran-4-yl)methy 1)-1,2-dihydropyridin-3-carboxamide] |
